According to ChEMBL document CHEMBL5108080 (J Med Chem, 2022):
Calls of active or inactive are those of the source. No cut-off for these calls is given here.

Experiments:
Influenza A virus [1] = assay: (§1) Antiviral activity against group 2 influenza A virus H3N2 (A/Victoria/361/2011) infected in MDCK cells infected with supernatant of compound treated virus-producing human A549 cells assessed as reduction in viral titer at 1 to 10 uM treated for 48 hrs with virus-producing human A549 cells followed by MDCK cells infection for 48 hrs by crystal violet staining based plaque assay; assay type: functional, organism-based; conditions: dose 1-10 µM, time 96.0 hrs
Influenza A virus [2] = assay: as §1, with “(A/Hong Kong-11/1968)” for “(A/Victoria/361/2011)”; assay type: functional, organism-based; conditions: dose 1-10 µM, time 96.0 hrs
[3] = Selectivity index, ratio of CC50 for human A549 cells to IC50 for VSV pseudotyped virus infected in A549 cells; assay type: toxicity, cell-based; conditions: read-out: Ratio CC50/IC50
[4] = Cytotoxicity against human A549 cells incubated for 48 hrs by celltiter-glo luminescent cell viability assay; assay type: toxicity, cell-based
Influenza A virus [5] = assay: Antiviral activity against group 2 influenza A H7N1 pseudotyped virus infected in A549 cells assessed as inhibition of viral entry incubated for 48 hrs by measuring luciferase activity by Neolite reporter gene assay; assay type: functional, organism-based; conditions: H7N1, A549, 48 h
[6] = Selectivity index, ratio of CC50 for human A549 cells to IC50 for group 2 influenza A H7N1 pseudotyped virus infected in A549 cells; assay type: toxicity, cell-based; conditions: read-out: Ratio CC50/IC50
[7] = Selectivity index, ratio of CC50 for human A549 cells to IC50 for […] influenza A H5N1 pseudotyped virus infected in A549 cells; assay type: toxicity, cell-based; conditions: read-out: Ratio CC50/IC50
[8] = test system: Vesicular stomatitis virus; assay: Antiviral activity against VSV pseudotyped virus infected in A549 cells assessed as inhibition of viral entry incubated for 48 hrs by measuring luciferase activity by Neolite reporter gene assay; assay type: functional, organism-based; conditions: A549, 48 h
Influenza A virus [9] = assay: Antiviral activity against […] influenza A H5N1 pseudotyped virus infected in A549 cells assessed as inhibition of viral entry incubated for 48 hrs by measuring luciferase activity by Neolite reporter gene assay; assay type: functional, organism-based; conditions: H5N1, A549, 48 h
Influenza A virus [10] = assay: Antiviral activity against group 2 influenza A virus H7N1 wild type; assay type: functional, organism-based

SMILES	Activity (Influenza A virus [1])	Activity (Influenza A virus [2])	selectivity ratio [3]	CC50 at 48 h [4] [µM]	IC50 (Influenza A virus [5]) [µM]	selectivity ratio [6]	selectivity ratio [7]	IC50 [8] [µM]	IC50 (Influenza A virus [9]) [µM]	IC50 (Influenza A virus [10]) [µM]
CCOC(=O)C1=C[C@@H](OC(CC)CC)[C@H](NC(C)=O)[C@@H](N)C1 [OSELTAMIVIR]	Active	Active								
COCCCCOc1ccc(-c2nc3ncccn3c2NC2CCCCC2)cc1	Active	Active	2	100	0.25	400	1	40	92	
Cc1cc(C)n2c(Nc3ccc4c(c3)OCCO4)c(-c3cccc(Br)c3)nc2n1				> 100	0.25	> 400				
CCCCOc1ccc(-c2nc3ncccn3c2N2C(=O)c3cccc(O)c3C2=O)cc1				> 100	15	> 6.6				
CCCCOc1ccc(-c2nc3ncccn3c2Nc2ccc(F)cc2)cc1				> 100	1.5	> 67				
COCCOc1ccc(-c2nc3ncccn3c2NC2CCCCC2)cc1				> 100	0.08	> 1300				
CCCCOc1ccc(-c2nc3ncccn3c2N)cc1				> 100	100	> 1				
CC(C)(C)CC(C)(C)Nc1nc2ncccn2c1-c1ccc(Br)cc1				> 100	8.6	> 12				
CCCCOc1ccc(-c2nc3ncccn3c2NCc2ccccn2)cc1				> 100	16	> 6				
CCCCOc1ccc(-c2c(NC(C)(C)CC(C)(C)C)nc3ncccn23)cc1				49	8.1	6				
Fc1ccc(COc2ccc(-c3nc4ncccn4c3NC3CCCCC3)cc2)cc1				24	0.26	92				
CCCCOc1ccc(-c2nc3ncccn3c2NCC2CC2)cc1				> 100	25	> 4				
CCCCOc1ccc(-c2nc3ncccn3c2NCC2CCCCC2)cc1				35	0.31	110				
Nc1c(-c2ccc(Br)cc2)nc2ncccn12				> 100	100	> 1				
CCCCOc1ccc(-c2nc3ncccn3c2NCCC)cc1				> 100	22	> 5				
Clc1ccc(-c2nc3ncccn3c2NC2CCCCC2)cc1	Active	Active	> 2	> 100	0.15	> 670	> 1	36	> 100	
Brc1ccc(-c2nc3ncccn3c2NC2CCCCC2)c(CN2CCOCC2)c1			< 1	54	9.9	5	> 1	60	32	
CCCCOc1ccc(-c2nc3ncccn3c2NCc2ccco2)cc1				78	7.9	10				
Cc1cc(Br)ccc1-c1nc2ncccn2c1Nc1ccccc1			1	40	2.2	18	< 1	100	> 100	
CCCCOc1ccc(-c2nc3ncccn3c2NC2CCCCC2)c(C)c1				32	0.22	150				
Brc1ccc(-c2nc3ncccn3c2NC2CCCCC2)cc1	Active	Active		> 100	0.2			42	> 100	
Oc1cccc(-c2nc3ncccn3c2NC2CCCCC2)c1				100	10	10				
Cc1cc(C)n2c(NC3CCCCC3)c(-c3ccc(Br)cc3)nc2n1				32	0.36	51				
COc1ccc(-c2nc3ncccn3c2NC2CCCCC2)cc1	Active	Active		> 100	0.037			100	> 100	0.019
CCCCOc1ccc(-c2nc3ncccn3c2NCc2ccc3ccccc3c2)cc1				33	6	6				
CCCCOc1ccc(-c2nc3ncccn3c2NC2CCCC2)cc1				40	1.5	27				
